PubChem BioAssay (NCI)
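Cells were grown in 96-well plates and exposed to each compound for 48 hours at five concentrations; endpoints were interpolated linearly between bracketing concentrations, or set to the highest concentration if not reached. GI50 = concentration required for 50% inhibition of growth. TGI: total growth inhibition.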

Experiments:
Assay in all cases: growth of human tumour cells (NCI), 48 h
HOP-18 NSCLC = tested on: HOP-18 NSCLC
DLD-1 colon = tested on: DLD-1 colon
KM20L2 colon = tested on: KM20L2 colon
SN12C renal = tested on: SN12C renal
SF-539 CNS = tested on: SF-539 CNS
SW-620 colon = tested on: SW-620 colon
K-562 leukemia = tested on: K-562 leukemia
NCI/ADR-RES ovarian = tested on: NCI/ADR-RES ovarian
LOX IMVI melanoma = tested on: LOX IMVI melanoma
OVCAR-8 ovarian = tested on: OVCAR-8 ovarian
SR leukemia = tested on: SR leukemia
TK-10 renal = tested on: TK-10 renal

## CC1NC(=O)C(C)C(c2ccccc2)N(N=O)C1c1ccccc1 (centres undefined)
HOP-18 NSCLC
  TGI: > 100 µM
DLD-1 colon
  TGI: > 100 µM
KM20L2 colon
  TGI: > 100 µM
SN12C renal
  TGI: > 100 µM
SF-539 CNS
  TGI: > 100 µM
SW-620 colon
  TGI: > 100 µM
K-562 leukemia
  TGI: > 100 µM
NCI/ADR-RES ovarian
  TGI: > 100 µM
LOX IMVI melanoma
  TGI: > 100 µM
OVCAR-8 ovarian
  TGI: > 100 µM

## O=C(CC1Sc2ccccc2NC1=O)Nc1ccccc1[N+](=O)[O-] (centres undefined)
HOP-18 NSCLC
  TGI: > 100 µM
DLD-1 colon
  TGI: > 100 µM
KM20L2 colon
  TGI: > 100 µM
SN12C renal
  TGI: > 100 µM
SF-539 CNS
  TGI: > 100 µM
SW-620 colon
  TGI: > 100 µM
K-562 leukemia
  TGI: > 100 µM
SR leukemia
  TGI: > 100 µM
TK-10 renal
  TGI: > 100 µM
LOX IMVI melanoma
  TGI: > 100 µM
OVCAR-8 ovarian
  TGI: > 100 µM

## CO[C@](C(=O)OC[C@H]1[C@@H](COC(C)=O)[C@@H]2O[C@H]1c1cc3c(cc12)OCO3)(c1ccccc1)C(F)(F)F
SN12C renal
  TGI: > 100 µM
SW-620 colon
  TGI: > 100 µM
SR leukemia
  TGI: > 100 µM
TK-10 renal
  TGI: > 100 µM

## CCOC(=O)c1csc(NC(=O)CN2CCCC2)n1
SF-539 CNS
  TGI: > 100 µM
SW-620 colon
  TGI: > 100 µM
K-562 leukemia
  TGI: > 100 µM
SR leukemia
  TGI: > 100 µM
NCI/ADR-RES ovarian
  TGI: > 100 µM
TK-10 renal
  TGI: > 100 µM
LOX IMVI melanoma
  TGI: > 100 µM
OVCAR-8 ovarian
  TGI: > 100 µM

## CCCCCCOc1ccc(/C=N/Nc2cc(C)nc3ccc(Cl)cc23)cc1
SN12C renal
  GI50: 1.69 µM
  TGI: 3.18 µM
SF-539 CNS
  GI50: 1.84 µM
  TGI: 3.26 µM
K-562 leukemia
  GI50: 0.467 µM
  TGI: 2.22 µM
SR leukemia
  GI50: 0.336 µM
  TGI: 1.6 µM
NCI/ADR-RES ovarian
  GI50: 1.9 µM
  TGI: 3.7 µM
TK-10 renal
  GI50: 1.89 µM
  TGI: 3.32 µM
LOX IMVI melanoma
  GI50: 1.26 µM
  TGI: 2.57 µM
OVCAR-8 ovarian
  GI50: 1.91 µM
  TGI: 4.21 µM

## Cc1ccc(C(=O)OC(C(=O)O)C(OC(=O)c2ccc(C)cc2)C(=O)O)cc1 (centres undefined) (tested in a mixture with another compound)
HOP-18 NSCLC
  TGI: 4.39 µM
DLD-1 colon
  TGI: 21.3 µM
KM20L2 colon
  TGI: 13 µM
SN12C renal
  TGI: 32 µM
SF-539 CNS
  TGI: 25.2 µM
SW-620 colon
  TGI: 10.2 µM
K-562 leukemia
  TGI: 7.87 µM
NCI/ADR-RES ovarian
  TGI: 23 µM
LOX IMVI melanoma
  TGI: 20.6 µM
OVCAR-8 ovarian
  TGI: 31.6 µM
